Measurements from US8722661B2, “Pyrrolopyrimidone and pyrrolopyridone inhibitors of tankyrase” (Genentech, Inc., priority 2012, dated 2014).
pIC50: −log10 of the molar value.

Key:
[1] = target: T1, PARP1 (His6-PARP1, full length) (Homo sapiens, UniProt P09874); test: μHTS-TNKS-IWR2 TR-FRET binding assay with His6-PARP1 in place of TNKS1; settings: Table I
T1 construct: His6-PARP1 (full length)
Method: (§1) μHTS-TNKS-IWR2TR-FRET Binding Assay
(§2) (10 μL/well in BD1536-well plate, a single point)
(§3) Alternatively, in place of His6-TNKS1 can use either His6-tankyrase 2 (construct: 934-1166) (His6-TNKS2) or His6-PARP1 (full length).
(§4) Biotin-IWR2: 10 mM Biotin-IWR2 stock in DMSO, stored at −20° C.
Positive control: 10 mM […] in DMSO, stored at −20° C.
(§5) Prepare Biotinylated IWR2 stock solution (3.33× stock) for TOTL and cpd wells: 200 nM Biotin-IWR2 in 5% DMSO/AB1b buffer
(§6) Prepare POSITIVE CONTROL well stock solution (3.33× stock): 200 nM XAV939 in 200 nM Biotin-IWR2/5% DMSO/AB1b buffer
(§7) (Alternatively, use TNKS2 or PARP1 stock solutions.)
(§8) Prepare Eu/APC stock solution (5× stock): 3.5 nM Eu-SA/50 nM APC-His6Ab in AB2 buffer
(§9) Add 25 μL/well 1.5% DMSO/AB1c buffer in each compound well to the compound concentration at 74 μM in 8.8% DMSO/AB1c buffer or in the 2 μL DMSO CONTROL wells (BLANK, TOTAL and POSITIVE wells) in the compound plate.
(§10) Transfer 3 μL/well above solution (solution 1,2,3) to an empty assay plate (BD1536-well plate) as follows:
(§11) Transfer 3 μL/well of the above diluted compound solutions or compound dilution buffer to the above assay plate.
(§12) Add 2 μL/well of 300 nM TNKS stock solution (4) to every well in the above assay plate.
(§13) Incubate the assay plate at 26° C. for 30 minutes.
(§14) Incubate the assay plate at 26° C. for 60 minutes.
(§15) Read the assay plate immediately at excitation wavelength of 330 nm and emission wavelength of […] in time resolved fluorescence mode.
(§16) Representative compound data for assays are listed below in Table I. Values are in uM.

[2] = target: T2, Tankyrase 1 (TNKS1) (Homo sapiens, UniProt O95271); test: μHTS-TNKS-IWR2 TR-FRET binding assay (TNKS1)
T2 construct: construct: 1088-1327, 1266M
T2 sequence (O95271 1088-1327): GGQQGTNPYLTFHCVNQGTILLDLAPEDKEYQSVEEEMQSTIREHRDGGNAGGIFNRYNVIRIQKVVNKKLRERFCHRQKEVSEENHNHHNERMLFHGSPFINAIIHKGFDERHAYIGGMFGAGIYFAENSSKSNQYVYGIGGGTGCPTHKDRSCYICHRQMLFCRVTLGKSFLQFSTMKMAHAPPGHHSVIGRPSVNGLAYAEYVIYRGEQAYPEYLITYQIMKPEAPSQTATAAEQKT
Method: as §1, §2
Reagents and Stock Solutions
as §4
Assay buffer 1a (AB 1a) for TNKS dilution: 50 mM Tris, pH 7.4, 100 mM sodium chloride solution, 1 mM magnesium chloride solution, 1 mM DL-dithiothreitol solution, 0.2 mg/mL bovine serum albumin solution, 0.025% NP-40.
Assay buffer 1b (AB 1b) for Biotin-IWR2 dilution: 50 mM Tris, pH 7.4, 100 mM sodium chloride solution, 1 mM magnesium chloride solution, 1 mM DL-dithiothreitol solution, 0.2 mg/mL bovine serum albumin solution, 0.05% NP-40
Assay buffer 1c (AB 1c) for compound dilution: 50 mM Tris, pH 7.4, 100 mM sodium chloride solution, 1 mM magnesium chloride solution, 1 mM DL-dithiothreitol solution, 0.2 mg/mL bovine serum albumin solution
Assay buffer 2 (AB2) for Eu/APC: 50 mM Tris, pH 7.4, 100 mM sodium chloride solution, 1 mM magnesium chloride solution, 0.2 mg/mL bovine serum albumin solution
Reagent Stock Solution Preparation
Prepare BLANK well stock solution: 5% DMSO/AB1b buffer
Prepare TNKS1 stock solution (5× stock): 300 nM TNKS in AB1a buffer
as §10
TOTL and cpd wells: Solution 1 (Biotin-IWR2):
BLNK wells: Solution 2 (No Biotin-IWR2):
POSITIVE CONTROL wells: Solution 3 (Biotin-IWR2+XAV939)
as §11, §12
Centrifuge the assay plate at 2100 rpm for 2 minutes.
as §13, §14

[3] = target: T3, tankyrase 2 (His6-TNKS2) (Homo sapiens, UniProt Q9H2K2); test: μHTS-TNKS-IWR2 TR-FRET binding assay with His6-TNKS2 in place of TNKS1; settings: Table I
T3 construct: His6-tankyrase 2 (construct: 934-1166)
T3 sequence (Q9H2K2 934-1166): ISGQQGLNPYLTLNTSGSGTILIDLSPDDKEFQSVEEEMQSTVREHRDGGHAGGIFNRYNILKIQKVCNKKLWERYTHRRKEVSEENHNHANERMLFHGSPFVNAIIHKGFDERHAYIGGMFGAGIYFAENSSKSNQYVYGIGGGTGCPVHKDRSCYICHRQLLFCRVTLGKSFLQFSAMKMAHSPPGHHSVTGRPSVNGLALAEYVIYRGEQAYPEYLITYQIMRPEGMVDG
Method: as §1, §2, §3, §4
Positive control: 10 mM XAV 939 in DMSO, stored at −20° C.
as §5, §6, §7, §8, §9, §10, §11, §12, §13, §14, §15, §16

T1 sequence (P09874 whole entry): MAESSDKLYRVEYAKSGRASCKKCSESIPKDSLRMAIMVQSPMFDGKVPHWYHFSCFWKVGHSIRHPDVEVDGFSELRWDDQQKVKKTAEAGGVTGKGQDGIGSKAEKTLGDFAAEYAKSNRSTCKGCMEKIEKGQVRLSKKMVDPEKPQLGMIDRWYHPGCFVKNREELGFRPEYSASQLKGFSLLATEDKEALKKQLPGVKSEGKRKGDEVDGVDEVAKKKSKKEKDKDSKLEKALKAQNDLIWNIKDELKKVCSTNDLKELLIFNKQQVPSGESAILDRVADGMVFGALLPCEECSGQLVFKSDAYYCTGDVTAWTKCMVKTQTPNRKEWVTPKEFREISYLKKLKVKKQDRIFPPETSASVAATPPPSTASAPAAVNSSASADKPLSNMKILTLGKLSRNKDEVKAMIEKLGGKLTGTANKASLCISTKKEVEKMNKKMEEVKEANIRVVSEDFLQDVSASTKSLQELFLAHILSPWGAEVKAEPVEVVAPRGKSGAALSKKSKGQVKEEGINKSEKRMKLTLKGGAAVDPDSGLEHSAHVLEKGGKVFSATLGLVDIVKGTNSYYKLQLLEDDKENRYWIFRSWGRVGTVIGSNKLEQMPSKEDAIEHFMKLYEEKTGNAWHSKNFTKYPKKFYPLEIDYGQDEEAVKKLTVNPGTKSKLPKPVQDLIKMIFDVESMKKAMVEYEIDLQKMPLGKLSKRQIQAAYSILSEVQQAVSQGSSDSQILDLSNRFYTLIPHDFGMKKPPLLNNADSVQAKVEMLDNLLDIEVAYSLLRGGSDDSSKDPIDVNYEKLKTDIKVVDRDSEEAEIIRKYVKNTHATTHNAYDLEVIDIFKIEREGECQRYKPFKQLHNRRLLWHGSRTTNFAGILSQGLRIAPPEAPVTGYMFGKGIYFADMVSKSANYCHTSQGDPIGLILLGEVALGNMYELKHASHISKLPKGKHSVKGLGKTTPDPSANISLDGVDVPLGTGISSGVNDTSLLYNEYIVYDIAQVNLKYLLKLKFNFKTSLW

SMILES | pIC50 [1] | pIC50 [2] | pIC50 [3]
Cn1ccc2c(=O)[nH]c(-c3ccc(C(F)(F)F)cc3)cc21 [Example 45, 1-Methyl-6-(4-trifluoromethyl-phenyl)-1,5-dihydro-pyrrolo[3,2-c]pyridin-4-one] | 6.07 | 7.40 | 7.41
Cn1ccc2c(=O)[nH]c(N3CCN(c4c(Cl)cncc4Cl)CC3)nc21 [Example 34, 2-[4-(3,5-Dichloro-pyridin-4-yl)-piperazin-1-yl]-7-methyl-3,7-dihydro-pyrrolo[2,3-d]pyrimidin-4-one] | 5.86 | 7.60 | 7.62
Cn1ccc2c(=O)[nH]c(N3CCN(c4ccccc4F)CC3)nc21 [Example 28, 2-[4-(2-Fluoro-phenyl)-piperazin-1-yl]-7-methyl-3,7-dihydro-pyrrolo[2,3-d]pyrimidin-4-one] | 5.48 | 7.40 | 7.10
O=c1[nH]c(-c2ccc(C(F)(F)F)cc2)nc2c1ccn2CO [Example 57, 7-Hydroxymethyl-2-(4-trifluoromethyl-phenyl)-3,7-dihydro-pyrrolo[2,3-d]pyrimidin-4-one] | 5.73 | 7.32 | 7.19
Cn1ccc2c(=O)[nH]c(N3CCN(c4ccccc4F)CC3)cc21 [Example 35, 6-[4-(2-Fluoro-phenyl)-piperazin-1-yl]-1-methyl-1,5-dihydro-pyrrolo[3,2-c]pyridin-4-one] | 5.79 | 7.29 | 7.23
Cn1ccc2c(=O)[nH]c(-c3ccccc3)nc21 [Example 62, 7-Methyl-2-phenyl-3,7-dihydro-pyrrolo[2,3-d]pyrimidin-4-one] | 5.41 | 6.93 | 6.81
Cn1ccc2c(=O)[nH]c(-c3ccc(C(F)(F)F)nc3)nc21 [Example 44, 7-Methyl-2-(6-trifluoromethyl-pyridin-3-yl)-3,7-dihydro-pyrrolo[2,3-d]pyrimidin-4-one] | 7.03 | 7.06 | 7.08
C=CCn1ccc2c(=O)[nH]c(-c3ccc(C(F)(F)F)cc3)nc21 [Example 52, 7-Allyl-2-(4-trifluoromethyl-phenyl)-3,7-dihydro-pyrrolo[2,3-d]pyrimidin-4-one] | < 4.30 | 6.12 | 6.14
Cn1ccc2c(=O)[nH]c(N3CCN(c4ccc(F)cc4S(C)(=O)=O)CC3)nc21 [Example 5, 2-[4-(4-Fluoro-2-methanesulfonyl-phenyl)-piperazin-1-yl]-7-methyl-3,7-dihydro-pyrrolo[2,3-d]pyrimidin-4-one] | 5.93 | 7.52 | 7.46
Cn1ccc2c(=O)[nH]c(N3CCOCC3)nc21 [Example 12, 7-Methyl-2-morpholin-4-yl-3,7-dihydro-pyrrolo[2,3-d]pyrimidin-4-one] | 5.76 | 5.72 | 5.74
O=c1[nH]c(-c2ccc(C(F)(F)F)cc2)nc2c1ccn2C1CC1 [Example 59, 7-Cyclopropyl-2-(4-trifluoromethyl-phenyl)-3,7-dihydro-pyrrolo[2,3-d]pyrimidin-4-one] | < 4.30 | 6.26 | 6.21

Continued, values first:

pIC50 [1] | pIC50 [2] | pIC50 [3] | SMILES
5.97 | 7.57 | 7.49 | Cn1ccc2c(=O)[nH]c(N3CCN(c4ccc(F)cc4)CC3)nc21 [Example 17, 2-[4-(4-Fluoro-phenyl)-piperazin-1-yl]-7-methyl-3,7-dihydro-pyrrolo[2,3-d]pyrimidin-4-one]
6.51 | 6.12 | 6.25 | Cn1ccc2c(=O)[nH]c(-c3cccnc3)nc21 [Example 41, 7-Methyl-2-pyridin-3-yl-3,7-dihydro-pyrrolo[2,3-d]pyrimidin-4-one]
< 4.30 | 5.89 | 5.87 | C=CCCn1ccc2c(=O)[nH]c(-c3ccc(C(F)(F)F)cc3)nc21 [Example 49, 7-But-3-enyl-2-(4-trifluoromethyl-phenyl)-3,7-dihydro-pyrrolo[2,3-d]pyrimidin-4-one]
5.98 | 7.37 | 7.47 | Cn1ccc2c(=O)[nH]c(N3CCN(c4ccccc4C#N)CC3)nc21 [Example 19, 2-[4-(7-Methyl-4-oxo-4,7-dihydro-3H-pyrrolo[2,3-d]pyrimidin-2-yl)-piperazin-1-yl]-benzonitrile]
6.21 | 7.15 | 7.20 | Cn1ccc2c(=O)[nH]c(N3CCN(c4ncccc4C#N)CC3)nc21 [Example 9, 2-[4-(7-Methyl-4-oxo-4,7-dihydro-3H-pyrrolo[2,3-d]pyrimidin-2-yl)-piperazin-1-yl]-nicotinonitrile]
6.21 | 7.09 | 7.05 | Cn1ccc2c(=O)[nH]c(N3CCN(c4cccc(C#N)c4)CC3)nc21 [Example 21, 3-[4-(7-Methyl-4-oxo-4,7-dihydro-3H-pyrrolo[2,3-d]pyrimidin-2-yl)-piperazin-1-yl]-benzonitrile]
6.07 | 7.27 | 7.24 | COc1ccc(-c2nc3c(ccn3C)c(=O)[nH]2)cc1 [Example 39, 2-(4-Methoxy-phenyl)-7-methyl-3,7-dihydro-pyrrolo[2,3-d]pyrimidin-4-one]
< 4.30 | 5.25 | 5.17 | C=CCCn1ccc2c(=O)[nH]c(N3CCN(c4ccccc4Cl)CC3)nc21 [Example 27, 7-But-3-enyl-2-[4-(2-chloro-phenyl)-piperazin-1-yl]-3,7-dihydro-pyrrolo[2,3-d]pyrimidin-4-one]
6.64 | 6.33 | 6.37 | CC(=O)N1CCN(c2nc3c(ccn3C)c(=O)[nH]2)CC1 [Example 14, 2-(4-Acetyl-piperazin-1-yl)-7-methyl-3,7-dihydro-pyrrolo[2,3-d]pyrimidin-4-one]
5.66 | 7.47 | 7.44 | Cn1ccc2c(=O)[nH]c(N3CCN(c4ncccc4C(F)(F)F)CC3)nc21 [Example 6, 7-Methyl-2-[4-(3-trifluoromethyl-pyridin-2-yl)-piperazin-1-yl]-3,7-dihydro-pyrrolo[2,3-d]pyrimidin-4-one]
4.38 | 7.55 | 7.51 | Cn1ccc2c(=O)[nH]c(N3CCN(c4ccccc4C(F)(F)F)CC3)nc21 [Example 23, 7-Methyl-2-[4-(2-trifluoromethyl-phenyl)-piperazin-1-yl]-3,7-dihydro-pyrrolo[2,3-d]pyrimidin-4-one]
5.95 | 6.96 | 6.66 | O=c1[nH]c(-c2ccc(C(F)(F)F)cc2)nc2[nH]ccc12 [Example 37, 2-(4-Trifluoromethyl-phenyl)-3,7-dihydro-pyrrolo[2,3-d]pyrimidin-4-one]
